{"source": "ChEMBL document CHEMBL1275543", "about": "“Proposed MIC and disk diffusion microbiological cutoffs and spectrum of activity of retapamulin, a novel topical antimicrobial agent” (2008)", "format_in_all_cases": "functional", "key": {"Staphylococcus [1]": {"system": "Staphylococcus", "experiment": "Antibacterial activity against methicillin resistant coagulase-negative Staphylococcus"}, "Staphylococcus [2]": {"system": "Staphylococcus", "experiment": "Antibacterial activity against methicillin sensitive coagulase-negative Staphylococcus"}, "Staphylococcus aureus [3]": {"system": "Staphylococcus aureus", "experiment": "Antibacterial activity against methicillin resistant Staphylococcus aureus"}, "Staphylococcus aureus [4]": {"system": "Staphylococcus aureus", "experiment": "Antibacterial activity against methicillin sensitive Staphylococcus aureus"}, "Staphylococcus aureus [5]": {"system": "Staphylococcus aureus", "experiment": "Antibacterial activity against vancomycin intermediate Staphylococcus aureus"}, "[6]": {"experiment": "Antibacterial activity against beta-hemolytic Streptococcus group C", "details": "Streptococcus sp. 'group C'"}, "[7]": {"experiment": "Antibacterial activity against beta-hemolytic Streptococcus group G", "details": "Streptococcus sp. 'group G'"}, "Streptococcus agalactiae": {"system": "Streptococcus agalactiae", "experiment": "Antibacterial activity against Streptococcus agalactiae"}, "Streptococcus pyogenes [8]": {"system": "Streptococcus pyogenes", "experiment": "Antibacterial activity against Streptococcus pyogenes"}, "Streptococcus viridans": {"system": "Streptococcus viridans", "experiment": "Antibacterial activity against Streptococcus viridans"}, "Staphylococcus aureus [9]": {"system": "Staphylococcus aureus", "experiment": "Antibacterial activity against Staphylococcus aureus"}, "Streptococcus pyogenes [10]": {"system": "Streptococcus pyogenes", "experiment": "Ratio of MBC90 to MIC90 for Streptococcus pyogenes"}, "Staphylococcus [11]": {"system": "Staphylococcus", "experiment": "Ratio of MBC90 to MIC90 for coagulase-negative Staphylococcus"}, "Staphylococcus aureus [12]": {"system": "Staphylococcus aureus", "experiment": "Ratio of MBC90 to MIC90 for Staphylococcus aureus"}, "[13]": {"experiment": "Antibacterial activity against gram-negative Bacilli species"}, "Enterococcus": {"system": "Enterococcus", "experiment": "Antibacterial activity against Enterococcus species"}, "Staphylococcus [14]": {"system": "Staphylococcus", "experiment": "Antibacterial activity against coagulase-negative Staphylococcus"}}, "data": [{"smiles": "C=C[C@]1(C)C[C@@H](OC(=O)CS[C@@H]2C[C@H]3CC[C@@H](C2)N3C)[C@]2(C)[C@H](C)CC[C@]3(CCC(=O)[C@H]32)[C@@H](C)[C@@H]1O", "note": "[RETAPAMULIN]", "values": [{"measurement": "MIC50", "setting": "Staphylococcus [1]", "value": 0.06, "unit": "µg/mL"}, {"measurement": "MIC90", "setting": "Staphylococcus [1]", "value": 0.12, "unit": "µg/mL"}, {"measurement": "MIC50", "setting": "Staphylococcus [2]", "value": 0.12, "unit": "µg/mL"}, {"measurement": "MIC90", "setting": "Staphylococcus [2]", "value": 4, "unit": "µg/mL"}, {"measurement": "MIC50", "setting": "Staphylococcus aureus [3]", "value": 0.12, "unit": "µg/mL"}, {"measurement": "MIC90", "setting": "Staphylococcus aureus [3]", "value": 0.12, "unit": "µg/mL"}, {"measurement": "MIC50", "setting": "Staphylococcus aureus [4]", "value": 0.12, "unit": "µg/mL"}, {"measurement": "MIC90", "setting": "Staphylococcus aureus [4]", "value": 0.12, "unit": "µg/mL"}, {"measurement": "MIC50", "setting": "Staphylococcus aureus [5]", "value": 0.06, "unit": "µg/mL"}, {"measurement": "MIC90", "setting": "Staphylococcus aureus [5]", "value": 0.12, "unit": "µg/mL"}, {"measurement": "MIC", "setting": "[6]", "value": 0.016, "unit": "µg/mL"}, {"measurement": "MIC50", "setting": "[6]", "value": 0.016, "unit": "µg/mL"}, {"measurement": "MIC90", "setting": "[6]", "value": 0.03, "unit": "µg/mL"}, {"measurement": "MIC50", "setting": "[7]", "value": 0.03, "unit": "µg/mL"}, {"measurement": "MIC90", "setting": "[7]", "value": 0.06, "unit": "µg/mL"}, {"measurement": "MIC50", "setting": "Streptococcus agalactiae", "value": 0.03, "unit": "µg/mL"}, {"measurement": "MIC90", "setting": "Streptococcus agalactiae", "value": 0.03, "unit": "µg/mL"}, {"measurement": "Activity", "setting": "Streptococcus pyogenes [8]", "value": 16, "unit": "µg/mL"}, {"measurement": "MIC", "setting": "Streptococcus pyogenes [8]; Streptococcus pyogenes", "value": 0.016, "unit": "µg/mL"}, {"measurement": "MIC50", "setting": "Streptococcus pyogenes [8]; Streptococcus pyogenes", "value": 0.016, "unit": "µg/mL"}, {"measurement": "MIC90", "setting": "Streptococcus pyogenes [8]; Streptococcus pyogenes", "value": 0.03, "unit": "µg/mL"}, {"measurement": "MIC50", "setting": "Streptococcus viridans", "value": 0.06, "unit": "µg/mL"}, {"measurement": "MIC90", "setting": "Streptococcus viridans", "value": 0.25, "unit": "µg/mL"}, {"measurement": "Activity", "setting": "Staphylococcus aureus [9]", "value": 128, "unit": "µg/mL"}, {"measurement": "Ratio", "setting": "Streptococcus pyogenes [10]", "value": 256}, {"measurement": "Ratio", "setting": "Staphylococcus [11]", "value": 512}, {"measurement": "Ratio", "setting": "Staphylococcus aureus [12]", "value": 1024}, {"measurement": "MIC50", "setting": "[13]", "value": 256, "unit": "µg/mL"}, {"measurement": "MIC90", "setting": "[13]", "value": "> 512", "unit": "µg/mL"}, {"measurement": "MIC50", "setting": "Enterococcus", "value": 64, "unit": "µg/mL"}, {"measurement": "MIC90", "setting": "Enterococcus", "value": 128, "unit": "µg/mL"}, {"measurement": "MBC", "setting": "Staphylococcus [14]", "value": 64, "unit": "µg/mL"}]}, {"smiles": "C/C(=C\\C(=O)OCCCCCCCCC(=O)O)C[C@@H]1OC[C@H](C[C@@H]2O[C@H]2[C@@H](C)[C@H](C)O)[C@@H](O)[C@H]1O", "note": "[MUPIROCIN]", "values": [{"measurement": "MIC50", "setting": "Staphylococcus [1]", "value": 0.25, "unit": "µg/mL"}, {"measurement": "MIC90", "setting": "Staphylococcus [1]", "value": "> 32", "unit": "µg/mL"}, {"measurement": "MIC50", "setting": "Staphylococcus [2]", "value": 0.25, "unit": "µg/mL"}, {"measurement": "MIC90", "setting": "Staphylococcus [2]", "value": 32, "unit": "µg/mL"}, {"measurement": "MIC50", "setting": "Staphylococcus aureus [3]", "value": 0.25, "unit": "µg/mL"}, {"measurement": "MIC90", "setting": "Staphylococcus aureus [3]", "value": 2, "unit": "µg/mL"}, {"measurement": "MIC50", "setting": "Staphylococcus aureus [4]", "value": 0.25, "unit": "µg/mL"}, {"measurement": "MIC90", "setting": "Staphylococcus aureus [4]", "value": 0.5, "unit": "µg/mL"}, {"measurement": "MIC50", "setting": "Staphylococcus aureus [5]", "value": 0.25, "unit": "µg/mL"}, {"measurement": "MIC90", "setting": "Staphylococcus aureus [5]", "value": 1, "unit": "µg/mL"}, {"measurement": "MIC50", "setting": "[6]", "value": 0.5, "unit": "µg/mL"}, {"measurement": "MIC90", "setting": "[6]", "value": 1, "unit": "µg/mL"}, {"measurement": "MIC50", "setting": "[7]", "value": 0.25, "unit": "µg/mL"}, {"measurement": "MIC90", "setting": "[7]", "value": 0.5, "unit": "µg/mL"}, {"measurement": "MIC50", "setting": "Streptococcus agalactiae", "value": 1, "unit": "µg/mL"}, {"measurement": "MIC90", "setting": "Streptococcus agalactiae", "value": 2, "unit": "µg/mL"}, {"measurement": "MIC50", "setting": "Streptococcus pyogenes [8]; Streptococcus pyogenes", "value": 0.12, "unit": "µg/mL"}, {"measurement": "MIC90", "setting": "Streptococcus pyogenes [8]; Streptococcus pyogenes", "value": 0.25, "unit": "µg/mL"}, {"measurement": "MIC50", "setting": "Streptococcus viridans", "value": 1, "unit": "µg/mL"}, {"measurement": "MIC90", "setting": "Streptococcus viridans", "value": 2, "unit": "µg/mL"}, {"measurement": "MIC50", "setting": "[13]", "value": "> 32", "unit": "µg/mL"}, {"measurement": "MIC90", "setting": "[13]", "value": "> 32", "unit": "µg/mL"}, {"measurement": "MIC50", "setting": "Enterococcus", "value": 32, "unit": "µg/mL"}, {"measurement": "MIC90", "setting": "Enterococcus", "value": "> 32", "unit": "µg/mL"}]}]}
